# Results: PubChem BioAssay (NCI)
#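 These data come from cells grown in 96-well plates and exposed to compound for 48 hours at five concentrations. Definition used: TGI = concentration required for complete inhibition of growth.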
# Columns and labels:
# Experiment in all cases: NCI anticancer screen, dose series, 48 h
# [1] = tested on: SNB-75 CNS
# [2] = tested on: XF 498 CNS
# [3] = tested on: COLO 205 colon
# [4] = tested on: RPMI-8226 leukemia
# [5] = tested on: HT29 colon
# [6] = tested on: MALME-3M melanoma
# [7] = tested on: HOP-18 NSCLC
# [8] = tested on: DLD-1 colon
# [9] = tested on: NCI-H226 lung
# [10] = tested on: OVCAR-3 ovarian
# [11] = tested on: SK-MEL-2 melanoma
# [12] = tested on: M19-MEL melanoma
# [13] = tested on: NCI/ADR-RES ovarian
# [14] = tested on: SNB-78 CNS
# [15] = tested on: LXFL 529 NSCLC
compound,measurement,setting,value
Nc1nc(SCC(=O)c2ccccc2)c2[nH]cnc2n1,TGI,[1],82.6 µM
same,TGI,[2],> 100 µM
same,TGI,[3],> 100 µM
same,TGI,[4],> 100 µM
same,TGI,[5],> 100 µM
same,TGI,[6],> 100 µM
same,TGI,[7],> 100 µM
same,TGI,[8],> 100 µM
same,TGI,[9],> 100 µM
same,TGI,[10],> 100 µM
same,TGI,[11],> 100 µM
same,TGI,[12],> 100 µM
O=c1[nH]c(=O)c2c([nH]1)[nH]c1ccc(Br)cc12,TGI,[1],> 100 µM
same,TGI,[3],> 100 µM
same,TGI,[4],> 100 µM
same,TGI,[5],> 100 µM
same,TGI,[13],> 100 µM
same,TGI,[6],> 100 µM
same,TGI,[9],> 100 µM
same,TGI,[11],> 100 µM
Cn1c(=O)c2ccccc2[n+]2c(-c3cccc([N+](=O)[O-])c3)csc12,TGI,[1],82.2 µM
same,TGI,[3],> 100 µM
same,TGI,[4],> 100 µM
same,TGI,[5],> 100 µM
same,TGI,[13],83.5 µM
same,TGI,[6],> 100 µM
same,TGI,[9],> 100 µM
same,TGI,[10],> 100 µM
same,TGI,[11],> 100 µM
CCN(CC)C1Oc2cc3c(cc2C(c2cc(OC)c(O)c(OC)c2)C1C)OCO3 (stereo not drawn),TGI,[1],23.9 µM
same,TGI,[3],31.8 µM
same,TGI,[4],34.7 µM
same,TGI,[5],22.2 µM
same,TGI,[13],37.4 µM
same,TGI,[6],30 µM
same,TGI,[9],52.3 µM
same,TGI,[10],25.9 µM
same,TGI,[11],> 95.7 µM
COC(=O)c1cc(CC2Cc3cc4c(cc3C2=O)CCC4)cc2c1CCC2 (stereo not drawn),TGI,[1],> 100 µM
same,TGI,[3],> 100 µM
same,TGI,[4],> 100 µM
same,TGI,[5],> 100 µM
same,TGI,[13],> 100 µM
same,TGI,[6],> 100 µM
same,TGI,[9],> 100 µM
same,TGI,[10],> 100 µM
same,TGI,[11],> 100 µM
CN(C)c1ccc(C=Nc2ccc(-c3nc4ccccc4s3)cc2)cc1,TGI,[1],80.9 µM
same,TGI,[3],62.3 µM
same,TGI,[4],> 100 µM
same,TGI,[5],> 100 µM
same,TGI,[13],92 µM
same,TGI,[6],95.7 µM
same,TGI,[9],> 100 µM
same,TGI,[10],57.6 µM
same,TGI,[11],58.9 µM
COc1ccc(-c2sc(Br)c3c2C(=O)C2OC(=O)NC32)cc1OC (stereo not drawn),TGI,[1],> 100 µM
same,TGI,[3],> 100 µM
same,TGI,[4],> 100 µM
same,TGI,[5],> 100 µM
same,TGI,[13],> 100 µM
same,TGI,[6],> 100 µM
same,TGI,[9],> 100 µM
same,TGI,[10],> 100 µM
same,TGI,[11],> 100 µM
CC1(c2ccccc2)O[C@@H]2C[C@H]3[C@@H]4CCC5=CC(=O)C=C[C@]5(C)[C@@]4(F)[C@@H](O)C[C@]3(C)[C@]2(C(=O)CO)O1 (stereo partly drawn),TGI,[1],44.8 µM
same,TGI,[3],27.8 µM
same,TGI,[4],17.2 µM
same,TGI,[5],32.4 µM
same,TGI,[13],36 µM
same,TGI,[6],27.5 µM
same,TGI,[9],31 µM
same,TGI,[10],28.7 µM
same,TGI,[11],28.3 µM
CC1=NN(c2ccc(S(=O)(=O)O)cc2)C2(C1)C(Cl)C(=O)N2c1nc2ccccc2s1 (stereo not drawn),TGI,[1],> 100 µM
same,TGI,[3],> 100 µM
same,TGI,[4],> 100 µM
same,TGI,[5],> 100 µM
same,TGI,[13],> 100 µM
same,TGI,[6],> 100 µM
same,TGI,[9],> 100 µM
same,TGI,[10],> 100 µM
same,TGI,[11],> 100 µM
COc1ccc(N2C(=O)C(Cl)C2c2cc3cc(Br)ccc3nc2Cl)cc1 (stereo not drawn),TGI,[1],> 25 µM
same,TGI,[3],9.11 µM
same,TGI,[4],21.6 µM
same,TGI,[5],8.84 µM
same,TGI,[13],14.1 µM
same,TGI,[6],10.1 µM
same,TGI,[9],13.2 µM
same,TGI,[10],> 25 µM
same,TGI,[11],11.1 µM
CC(C)(C)OC(=O)N(O)[C@@H]1CC[C@H](n2cnc3c(N)ncnc32)C1,TGI,[1],> 100 µM
same,TGI,[3],> 100 µM
same,TGI,[4],> 100 µM
same,TGI,[5],> 100 µM
same,TGI,[13],> 100 µM
same,TGI,[6],> 100 µM
same,TGI,[9],> 100 µM
same,TGI,[10],> 100 µM
same,TGI,[11],> 100 µM
N=c1oc2ccccc2cc1C(=O)Nc1cccc2ccccc12,TGI,[1],> 100 µM
same,TGI,[3],> 100 µM
same,TGI,[4],> 100 µM
same,TGI,[5],> 100 µM
same,TGI,[13],> 100 µM
same,TGI,[6],> 100 µM
same,TGI,[9],> 100 µM
same,TGI,[10],> 100 µM
same,TGI,[11],> 100 µM
C=CCCCCCCCCCP(=O)(c1ccccc1)c1ccc2c(c1)OCCOCCOCCOCCO2 (stereo not drawn),TGI,[1],33.1 µM
same,TGI,[14],34.5 µM
same,TGI,[2],32.7 µM
same,TGI,[3],31 µM
same,TGI,[4],31.8 µM
same,TGI,[5],24.8 µM
same,TGI,[6],31.9 µM
same,TGI,[7],31.8 µM
same,TGI,[8],27.3 µM
same,TGI,[9],33.9 µM
same,TGI,[10],19.7 µM
same,TGI,[11],31.9 µM
same,TGI,[12],33 µM
CSC1=NN(C(C)=O)C(C(OC(C)=O)C(OC(C)=O)C(OC(C)=O)C(COC(C)=O)OC(C)=O)S1 (stereo not drawn),TGI,[1],> 100 µM
same,TGI,[3],> 100 µM
same,TGI,[4],> 100 µM
same,TGI,[5],> 100 µM
same,TGI,[13],> 100 µM
same,TGI,[6],> 100 µM
same,TGI,[9],> 100 µM
same,TGI,[10],> 100 µM
same,TGI,[11],> 100 µM
O=C1Nc2ccc(Br)cc2/C1=N/S(=O)(=O)O,TGI,[1],> 100 µM
same,TGI,[3],> 100 µM
same,TGI,[4],47.6 µM
same,TGI,[5],> 100 µM
same,TGI,[13],> 100 µM
same,TGI,[6],71.4 µM
same,TGI,[9],> 100 µM
same,TGI,[10],> 100 µM
same,TGI,[11],22.4 µM
CSc1c(C#N)c(=O)n(N)c2c1c(C)nn2-c1ccccc1,TGI,[1],85.4 µM
same,TGI,[3],32.5 µM
same,TGI,[4],63.9 µM
same,TGI,[5],65.4 µM
same,TGI,[13],62.9 µM
same,TGI,[6],70.2 µM
same,TGI,[9],70 µM
same,TGI,[10],77 µM
same,TGI,[11],63.3 µM
Cc1ccc(Nc2cccc3c2C(=O)c2cccc(Nc4ccc(C)cc4S(=O)(=O)O)c2C3=O)c(S(=O)(=O)O)c1,TGI,[1],> 100 µM
same,TGI,[14],> 100 µM
same,TGI,[3],> 100 µM
same,TGI,[4],> 100 µM
same,TGI,[6],> 100 µM
same,TGI,[7],> 100 µM
same,TGI,[8],> 100 µM
same,TGI,[15],> 100 µM
same,TGI,[9],> 100 µM
same,TGI,[10],> 100 µM
same,TGI,[11],> 100 µM
same,TGI,[12],> 100 µM
COCn1cc(C2=C(C)C(=O)C(C)=C(C)C2=O)cn1,TGI,[1],> 100 µM
same,TGI,[3],> 100 µM
same,TGI,[4],60.2 µM
same,TGI,[5],> 100 µM
same,TGI,[13],59.3 µM
same,TGI,[6],> 100 µM
same,TGI,[9],> 100 µM
same,TGI,[10],40 µM
same,TGI,[11],> 100 µM
COc1cccc(NC(=O)CSc2nnc(Cc3ccccc3)o2)c1,TGI,[1],> 100 µM
same,TGI,[14],> 100 µM
same,TGI,[3],> 100 µM
same,TGI,[4],> 100 µM
same,TGI,[5],> 100 µM
same,TGI,[6],> 100 µM
same,TGI,[7],> 100 µM
same,TGI,[8],> 100 µM
same,TGI,[15],> 100 µM
same,TGI,[9],> 100 µM
same,TGI,[10],> 100 µM
same,TGI,[11],> 100 µM
same,TGI,[12],> 100 µM
NS(=O)(=O)c1nnc(NS(=O)(=O)c2ccccc2[N+](=O)[O-])s1,TGI,[1],> 100 µM
same,TGI,[3],> 100 µM
same,TGI,[4],> 100 µM
same,TGI,[5],> 100 µM
same,TGI,[13],> 100 µM
same,TGI,[6],> 100 µM
same,TGI,[9],> 100 µM
same,TGI,[10],> 100 µM
same,TGI,[11],> 100 µM
